Measured values taken from ChEMBL document CHEMBL4433204, “Design, synthesis and docking study of novel picolinamide derivatives as anticancer agents and VEGFR-2 inhibitors” (Eur J Med Chem, 2019).
Each block holds one molecule with its values, some of them ahead of it. Active and inactive are the calls of the source. The rule behind the calls is not given here.

Legend:
[1] = tested on: A549; assay: Anticancer activity against human A549 cells assessed as reduction in cell viability incubated for 48 hrs by MTT assay; details: A549, 48 h
[2] = tested on: A549; assay: Induction of apoptosis in human A549 cells assessed as measuring caspase-3 levels after 2 hrs by sandwich ELISA method (reference value: 57.22 pg/ml); assay type: functional
[3] = tested on: A549; assay: Induction of apoptosis in human A549 cells assessed as reduction in MCL-1 protein level after 2 hrs by sandwich ELISA method; assay type: functional, cell-based; details: A549, 2 h
[4] = tested on: PANC-1; assay: Anticancer activity against human PANC1 assessed as reduction in cell viability incubated for 48 hrs by MTT assay; details: PANC-1, 48 h
[5] = tested on: OVCAR-3; assay: Anticancer activity against human OVCAR3 assessed as reduction in cell viability incubated for 48 hrs by MTT assay; details: OVCAR-3, 48 h
[6] = tested on: HT-29; assay: Anticancer activity against human HT-29 assessed as reduction in cell viability incubated for 48 hrs by MTT assay; details: HT-29, 48 h
[7] = tested on: A549; assay: Cell cycle arrest in human A549 cells assessed as accumulation at G0/G1 phase at 2 uM after 24 hrs by propidium iodide staining-based flow cytometric method (reference value: 65.63%); assay type: functional
[8] = tested on: A549; assay: Cell cycle arrest in human A549 cells assessed as accumulation at S phase at 2 uM after 24 hrs by propidium iodide staining-based flow cytometric method (reference value: 26.79%); assay type: functional
[9] = tested on: A549; assay: Cell cycle arrest in human A549 cells assessed as accumulation at G2/M phase at 2 uM after 24 hrs by propidium iodide staining-based flow cytometric method (reference value: 7.22%); assay type: functional
[10] = tested on: A549; assay: Cell cycle arrest in human A549 cells assessed as accumulation at pre-G1 phase at 2 uM after […] by propidium iodide staining-based flow cytometric method (reference value: 0.36%); assay type: functional
[11] = tested on: A549; assay: Induction of apoptosis in human A549 cells assessed as viable cells at 2 uM after 24 hrs by Annexin V-FITC/propidium iodide double staining based flow cytometry (reference value: 97.87%); assay type: functional; details: A549, 24 h, read-out: Activity
[12] = tested on: A549; assay: Induction of apoptosis in human A549 cells assessed as early apoptotic cells at 2 uM after 24 hrs by Annexin V-FITC/propidium iodide double staining based flow cytometry (reference value: […]); assay type: functional
[13] = tested on: A549; assay: Induction of apoptosis in human A549 cells assessed as late apoptotic cells at 2 uM after 24 hrs by Annexin V-FITC/propidium iodide double staining based flow cytometry (reference value: 0.11%); assay type: functional
[14] = tested on: A549; assay: Induction of apoptosis in human A549 cells assessed as necrotic cells at 2 uM after 24 hrs by Annexin V-FITC/propidium iodide double staining based flow cytometry (reference value: 0.1%); assay type: functional
[15] = target: Vascular endothelial growth factor receptor 2 (Homo sapiens, UniProt P35968); assay: Inhibition of human VEGFR2 in human A549 cells incubated for over night by ELISA method; assay type: cell-based
[16] = target: Receptor tyrosine-protein kinase erbB-2 (Homo sapiens, UniProt P04626); assay: Inhibition of human HER2 in human A549 cells by ELISA method; assay type: cell-based
[17] = target: Hepatocyte growth factor receptor (Homo sapiens, UniProt P08581); assay: Inhibition of human c-MET incubated for 2 hrs by ELISA method
[18] = target: Epidermal growth factor receptor (Homo sapiens, UniProt P00533); assay: biochemical; assay type: cell-based, Sf9
[19] = target: T1, Tyrosine-protein kinase Mer (Homo sapiens, UniProt Q12866); assay: Inhibition of human MER incubated for 90 mins by ELISA method
T1 sequence (Q12866 whole entry): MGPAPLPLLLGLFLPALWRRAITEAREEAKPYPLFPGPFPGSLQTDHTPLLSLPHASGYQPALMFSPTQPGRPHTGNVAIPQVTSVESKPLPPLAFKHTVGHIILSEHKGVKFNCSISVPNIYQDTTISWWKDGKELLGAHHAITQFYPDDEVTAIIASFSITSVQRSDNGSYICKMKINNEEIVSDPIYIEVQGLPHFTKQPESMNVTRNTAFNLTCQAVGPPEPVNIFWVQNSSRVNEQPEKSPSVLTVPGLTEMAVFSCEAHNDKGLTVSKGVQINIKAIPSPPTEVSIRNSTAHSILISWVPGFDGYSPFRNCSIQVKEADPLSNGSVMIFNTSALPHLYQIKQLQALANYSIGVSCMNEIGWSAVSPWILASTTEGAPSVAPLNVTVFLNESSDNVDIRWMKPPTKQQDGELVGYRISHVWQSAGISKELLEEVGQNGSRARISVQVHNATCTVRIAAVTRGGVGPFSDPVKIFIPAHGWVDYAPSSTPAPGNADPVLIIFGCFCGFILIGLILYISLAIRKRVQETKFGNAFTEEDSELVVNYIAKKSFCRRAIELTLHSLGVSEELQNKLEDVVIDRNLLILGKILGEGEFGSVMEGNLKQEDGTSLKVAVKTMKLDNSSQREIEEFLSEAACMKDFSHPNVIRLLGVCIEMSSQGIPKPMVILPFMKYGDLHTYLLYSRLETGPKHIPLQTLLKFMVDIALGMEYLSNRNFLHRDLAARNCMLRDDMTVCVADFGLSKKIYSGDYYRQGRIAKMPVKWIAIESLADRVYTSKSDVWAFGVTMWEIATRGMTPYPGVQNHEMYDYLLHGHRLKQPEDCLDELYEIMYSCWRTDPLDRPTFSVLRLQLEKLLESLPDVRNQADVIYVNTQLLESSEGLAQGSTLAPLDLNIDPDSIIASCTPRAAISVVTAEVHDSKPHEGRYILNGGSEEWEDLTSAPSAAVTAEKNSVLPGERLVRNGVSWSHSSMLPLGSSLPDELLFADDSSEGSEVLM

[20] = tested on: PANC-1; assay: Anticancer activity against human PANC1 assessed as reduction in cell viability at 100 uM incubated for 48 hrs by MTT assay relative to control; assay type: functional
[21] = tested on: OVCAR-3; assay: Anticancer activity against human OVCAR3 assessed as reduction in cell viability at 100 uM incubated for 48 hrs by MTT assay relative to control; assay type: functional
[22] = tested on: HT-29; assay: Anticancer activity against human HT-29 assessed as reduction in cell viability at 100 uM incubated for 48 hrs by MTT assay relative to control; assay type: functional
[23] = tested on: 786-0; assay: Anticancer activity against human 786-O assessed as reduction in cell viability at 100 uM incubated for 48 hrs by MTT assay relative to control; assay type: functional
[24] = tested on: A549; assay: Induction of apoptosis in human A549 cells assessed as total apoptotic cells at 2 uM after 24 hrs by Annexin V-FITC/propidium iodide double staining based flow cytometry relative to control; assay type: functional
[25] = tested on: A549; assay: Induction of apoptosis in human A549 cells assessed as measuring caspase-3 levels after 2 hrs by sandwich ELISA method relative to control; assay type: functional

Chain of Receptor tyrosine-protein kinase erbB-2 (P04626 whole entry): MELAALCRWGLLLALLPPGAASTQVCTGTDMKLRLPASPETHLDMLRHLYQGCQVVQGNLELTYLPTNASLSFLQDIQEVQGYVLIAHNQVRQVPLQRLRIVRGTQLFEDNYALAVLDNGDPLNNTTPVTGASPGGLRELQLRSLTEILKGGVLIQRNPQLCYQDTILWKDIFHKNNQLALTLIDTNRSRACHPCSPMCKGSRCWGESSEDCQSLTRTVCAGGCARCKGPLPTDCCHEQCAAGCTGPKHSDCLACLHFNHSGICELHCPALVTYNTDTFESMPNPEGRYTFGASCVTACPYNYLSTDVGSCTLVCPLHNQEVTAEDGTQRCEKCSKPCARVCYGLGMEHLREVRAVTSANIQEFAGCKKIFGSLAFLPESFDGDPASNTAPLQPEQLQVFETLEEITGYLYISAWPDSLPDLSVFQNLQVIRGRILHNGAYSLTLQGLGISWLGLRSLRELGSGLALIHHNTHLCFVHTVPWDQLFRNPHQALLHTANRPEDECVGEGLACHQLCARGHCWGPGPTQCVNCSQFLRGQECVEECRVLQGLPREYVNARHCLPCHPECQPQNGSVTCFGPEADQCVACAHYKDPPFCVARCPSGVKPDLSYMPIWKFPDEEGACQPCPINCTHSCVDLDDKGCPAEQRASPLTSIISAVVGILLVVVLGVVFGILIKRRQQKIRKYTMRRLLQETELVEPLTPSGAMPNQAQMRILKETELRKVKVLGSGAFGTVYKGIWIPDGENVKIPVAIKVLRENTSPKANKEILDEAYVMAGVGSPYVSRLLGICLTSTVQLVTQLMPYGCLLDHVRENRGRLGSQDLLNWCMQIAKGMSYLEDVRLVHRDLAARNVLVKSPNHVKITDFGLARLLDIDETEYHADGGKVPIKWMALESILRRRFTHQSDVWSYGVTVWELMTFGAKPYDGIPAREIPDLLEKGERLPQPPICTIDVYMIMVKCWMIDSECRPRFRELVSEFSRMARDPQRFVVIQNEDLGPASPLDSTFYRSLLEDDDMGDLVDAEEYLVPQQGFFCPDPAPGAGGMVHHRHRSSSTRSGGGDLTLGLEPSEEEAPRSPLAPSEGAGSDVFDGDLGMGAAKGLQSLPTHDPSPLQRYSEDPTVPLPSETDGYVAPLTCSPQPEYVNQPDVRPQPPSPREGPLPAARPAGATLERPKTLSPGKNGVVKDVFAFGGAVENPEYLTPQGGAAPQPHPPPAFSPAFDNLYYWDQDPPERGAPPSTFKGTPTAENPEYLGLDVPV
Chain of Vascular endothelial growth factor receptor 2 (P35968 whole entry): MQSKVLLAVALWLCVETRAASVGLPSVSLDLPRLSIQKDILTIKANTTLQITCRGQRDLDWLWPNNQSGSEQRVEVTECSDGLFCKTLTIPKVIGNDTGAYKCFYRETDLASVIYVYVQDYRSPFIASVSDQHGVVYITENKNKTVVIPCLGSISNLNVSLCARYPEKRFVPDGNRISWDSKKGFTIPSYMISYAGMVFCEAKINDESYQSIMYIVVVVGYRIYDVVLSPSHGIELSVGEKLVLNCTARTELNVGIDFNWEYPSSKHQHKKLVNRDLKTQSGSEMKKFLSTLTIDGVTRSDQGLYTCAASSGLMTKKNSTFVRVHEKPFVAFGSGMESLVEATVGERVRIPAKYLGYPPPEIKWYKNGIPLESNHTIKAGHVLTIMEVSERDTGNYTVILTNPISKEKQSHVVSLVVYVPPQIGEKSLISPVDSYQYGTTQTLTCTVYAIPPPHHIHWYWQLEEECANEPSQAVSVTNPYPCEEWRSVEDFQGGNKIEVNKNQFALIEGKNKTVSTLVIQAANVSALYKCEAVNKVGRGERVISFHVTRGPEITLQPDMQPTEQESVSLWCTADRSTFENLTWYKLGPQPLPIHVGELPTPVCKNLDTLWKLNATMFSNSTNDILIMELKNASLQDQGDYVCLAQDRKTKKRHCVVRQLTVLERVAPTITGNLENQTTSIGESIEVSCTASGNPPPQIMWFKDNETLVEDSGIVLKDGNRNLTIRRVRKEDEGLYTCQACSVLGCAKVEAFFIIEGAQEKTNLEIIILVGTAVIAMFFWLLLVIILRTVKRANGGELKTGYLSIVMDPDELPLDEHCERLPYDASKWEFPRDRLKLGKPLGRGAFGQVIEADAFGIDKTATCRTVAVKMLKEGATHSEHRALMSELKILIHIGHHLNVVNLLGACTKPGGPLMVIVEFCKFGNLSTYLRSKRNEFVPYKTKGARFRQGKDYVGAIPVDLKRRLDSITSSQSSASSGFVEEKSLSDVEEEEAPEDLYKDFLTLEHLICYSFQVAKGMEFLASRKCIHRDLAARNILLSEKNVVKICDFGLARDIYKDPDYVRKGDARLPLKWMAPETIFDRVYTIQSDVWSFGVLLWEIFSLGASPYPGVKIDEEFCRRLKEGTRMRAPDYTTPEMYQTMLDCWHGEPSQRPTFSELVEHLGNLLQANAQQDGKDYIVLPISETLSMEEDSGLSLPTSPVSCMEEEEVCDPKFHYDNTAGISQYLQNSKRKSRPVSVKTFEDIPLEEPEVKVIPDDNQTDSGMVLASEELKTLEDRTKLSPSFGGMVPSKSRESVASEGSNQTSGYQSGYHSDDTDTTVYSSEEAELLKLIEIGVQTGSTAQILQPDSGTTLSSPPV
Chain of Hepatocyte growth factor receptor (P08581 whole entry): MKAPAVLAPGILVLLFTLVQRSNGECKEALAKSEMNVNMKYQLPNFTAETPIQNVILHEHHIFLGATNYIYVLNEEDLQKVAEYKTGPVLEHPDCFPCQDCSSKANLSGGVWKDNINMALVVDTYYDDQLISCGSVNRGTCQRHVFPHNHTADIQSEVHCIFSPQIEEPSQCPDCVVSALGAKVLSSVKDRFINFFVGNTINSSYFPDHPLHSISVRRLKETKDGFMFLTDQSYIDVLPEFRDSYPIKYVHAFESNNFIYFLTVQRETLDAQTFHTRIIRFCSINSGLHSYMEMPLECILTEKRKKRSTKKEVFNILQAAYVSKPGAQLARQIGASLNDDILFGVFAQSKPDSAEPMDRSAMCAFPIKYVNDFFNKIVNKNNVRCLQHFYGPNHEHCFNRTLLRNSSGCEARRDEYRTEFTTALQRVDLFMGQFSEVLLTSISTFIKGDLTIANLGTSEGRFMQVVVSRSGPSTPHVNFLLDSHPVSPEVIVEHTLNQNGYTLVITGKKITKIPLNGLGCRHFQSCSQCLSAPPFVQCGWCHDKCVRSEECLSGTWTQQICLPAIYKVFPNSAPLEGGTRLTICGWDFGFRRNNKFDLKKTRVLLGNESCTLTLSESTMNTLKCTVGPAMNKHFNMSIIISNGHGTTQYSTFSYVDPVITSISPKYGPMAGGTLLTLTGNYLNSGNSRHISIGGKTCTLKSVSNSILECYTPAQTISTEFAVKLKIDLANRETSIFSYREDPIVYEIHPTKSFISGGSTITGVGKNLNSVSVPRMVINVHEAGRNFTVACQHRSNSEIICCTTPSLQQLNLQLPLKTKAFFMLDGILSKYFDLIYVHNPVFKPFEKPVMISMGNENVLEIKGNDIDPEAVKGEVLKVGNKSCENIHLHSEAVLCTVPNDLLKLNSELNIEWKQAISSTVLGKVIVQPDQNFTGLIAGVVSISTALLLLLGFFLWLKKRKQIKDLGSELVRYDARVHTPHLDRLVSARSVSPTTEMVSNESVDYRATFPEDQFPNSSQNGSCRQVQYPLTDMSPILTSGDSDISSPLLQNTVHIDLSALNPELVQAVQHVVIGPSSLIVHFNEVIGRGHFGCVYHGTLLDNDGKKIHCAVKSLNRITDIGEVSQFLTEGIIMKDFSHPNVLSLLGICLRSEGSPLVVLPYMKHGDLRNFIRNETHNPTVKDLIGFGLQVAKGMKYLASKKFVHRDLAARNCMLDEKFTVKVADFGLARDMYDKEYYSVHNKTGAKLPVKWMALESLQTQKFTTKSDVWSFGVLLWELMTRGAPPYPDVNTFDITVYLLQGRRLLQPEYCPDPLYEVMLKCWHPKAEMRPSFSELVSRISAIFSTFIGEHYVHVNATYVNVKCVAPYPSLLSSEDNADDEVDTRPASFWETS

- IC50 [1]: 0.21 µM
SMILES: C=CCN1CCN(C(=S)SCC(=O)Nc2cccc(NC(=O)c3ccccn3)c2)CC1

- IC50 [1]: 0.32 µM
SMILES: O=C(Nc1ccc([N+](=O)[O-])cc1)Nc1cccc(NC(=O)c2ccccn2)c1

- IC50 [1]: 0.53 µM
SMILES: O=C(CSC(=S)N1CCN(c2ccccc2)CC1)Nc1cccc(NC(=O)c2ccccn2)c1

- IC50 [1]: 0.02 µM
SMILES: Cc1ccc(NC(=O)Nc2cccc(NC(=O)c3ccccn3)c2)cc1

- IC50 [1]: 0.75 µM
- IC50 [3]: 5.53 µM
- IC50 [4]: 20 µM
- IC50 [5]: 12 µM
- IC50 [6]: 10 µM
SMILES: CNC(=O)c1cc(Oc2ccc(NC(=O)Nc3ccc(Cl)c(C(F)(F)F)c3)cc2)ccn1 [SORAFENIB]
- Activity [2]: 515 pg/mL
- Activity [7]: 45.13%
- Activity [8]: 15.51%
- Activity [9]: 23.14%
- Activity [10]: 16.22%
- viability at 2 µM [11]: 82%
- Activity [12]: 6.18%
- Activity [13]: 8.62%
- Activity [14]: 1.42%

- IC50 [1]: 2.42 µM
SMILES: O=C(CCSC(=S)N1CCOCC1)Nc1cccc(NC(=O)c2ccccn2)c1

- IC50 [1]: 1.34 µM
SMILES: CN1CCN(C(=S)SCC(=O)Nc2cccc(NC(=O)c3ccccn3)c2)CC1

- IC50 [1]: 0.24 µM
SMILES: O=C(Nc1cccc(NC(=O)c2ccccn2)c1)Nc1ccc2ccccc2c1

- IC50 [1]: 6.26 µM
- IC50 [15]: 0.087 µM
- IC50 [16]: 0.064 µM
- IC50 [17]: 6.22 µM
- IC50 [18]: 0.147 µM
- IC50 [19]: 2.63 µM
SMILES: O=C(Nc1cccc(NC(=O)c2ccccn2)c1)NC1CCCCC1
- Activity [20]: <=50%
- Activity [21]: <=50%
- Activity [22]: <=50%
- Activity [23]: <=50%

- IC50 [1]: 2.99 µM
SMILES: O=C(NCc1ccccc1)Nc1cccc(NC(=O)c2ccccn2)c1

- IC50 [1]: 5.19 µM
SMILES: O=C(Nc1ccccc1)Nc1cccc(NC(=O)c2ccccn2)c1

- IC50 [1]: 0.04 µM
SMILES: O=C(CSC(=S)N1CCN(c2ncccn2)CC1)Nc1cccc(NC(=O)c2ccccn2)c1

- IC50 [1]: 0.46 µM
SMILES: O=C(CCSC(=S)N1CCN(c2ncccn2)CC1)Nc1cccc(NC(=O)c2ccccn2)c1

- IC50 [1]: 0.32 µM
- IC50 [15]: 0.027 µM
- IC50 [16]: 0.104 µM
- IC50 [17]: 8.3 µM
- IC50 [18]: 0.084 µM
- IC50 [19]: 3.95 µM
- IC50 [3]: 6.7 µM
SMILES: O=C(CSC(=S)N1CCCCC1)Nc1cccc(NC(=O)c2ccccn2)c1
- fold change (FC) [24]: 49
- Activity [2]: 505.4 pg/mL
- fold change (FC) [25]: 8.833
- Activity [20]: Active
- Activity [22]: Active
- Activity [7]: 52.92%
- Activity [8]: 16.66%
- Activity [9]: 17.36%
- Activity [10]: 13.06%
- viability at 2 µM [11]: 85.2%
- Activity [12]: 5.01%
- Activity [13]: 7.72%
- Activity [14]: 1.33%

- IC50 [1]: 2.85 µM
SMILES: O=C(Nc1cccc(Cl)c1)Nc1cccc(NC(=O)c2ccccn2)c1

- IC50 [1]: 0.39 µM
SMILES: O=C(CSC(=S)N1CCN(C2CCCCC2)CC1)Nc1cccc(NC(=O)c2ccccn2)c1

- IC50 [1]: 4.12 µM
SMILES: O=C(CCSC(=S)N1CCCCC1)Nc1cccc(NC(=O)c2ccccn2)c1

- IC50 [1]: 0.05 µM
SMILES: O=C(CSC(=S)N1CCOCC1)Nc1cccc(NC(=O)c2ccccn2)c1

- IC50 [1]: 0.18 µM
SMILES: CC(C)(C)OC(=O)N1CCN(C(=S)SCC(=O)Nc2cccc(NC(=O)c3ccccn3)c2)CC1

- IC50 [1]: 3.62 µM
SMILES: O=C(Nc1ccc(Cl)cc1)Nc1cccc(NC(=O)c2ccccn2)c1

- IC50 [1]: 31.7 µM
- IC50 [15]: 0.094 µM
- IC50 [16]: 0.054 µM
- IC50 [17]: 17.9 µM
- IC50 [18]: 0.07 µM
- IC50 [19]: 3.12 µM
SMILES: O=C(CCSC(=S)N1CCN(c2ccccc2)CC1)Nc1cccc(NC(=O)c2ccccn2)c1
- Activity [20]: Active
- Activity [22]: Active

- IC50 [1]: 3.72 µM
SMILES: CCN1CCN(C(=S)SCC(=O)Nc2cccc(NC(=O)c3ccccn3)c2)CC1

- IC50 [1]: 0.45 µM
SMILES: O=C(Nc1cccc(NC(=S)Nc2ccc([N+](=O)[O-])cc2)c1)c1ccccn1

- IC50 [1]: 4.4 µM
SMILES: O=C(Nc1cccc(NC(=S)Nc2ccccc2)c1)c1ccccn1
